Earlier results on 1 molecule are cited in article PMC3964610 (Methods in molecular biology (Clifton, N.J.), 2012).

The conditions of this data set: I.P. 10 mg/kg, male Swiss Albino mice, plasma; ref [17].

Consider `CCC(=O)N1CCN(c2ccc(-n3c(=O)ccc4cnc5ccc(-c6cnc7ccccc7c6)cc5c43)cc2C(F)(F)F)CC1` [Torin1, 1-(4-(4-propionylpiperazin-1-yl)-3-(trifluoromethyl)phenyl)-9-(quinolin-3-yl)benzo[h][1,6]naphthyridin-2(1H)-one], for which the AUC is 5718 ng·h/mL, the peak concentration (Cmax) is recorded as 5121 ng/mL and the Tmax is 4.8 min.
